Test results from patent publication US9505724B2, “4-amino substituted condensed pyrimidine compounds as PDE4 inhibitors” (GRÜNENTHAL GMBH, priority 2013, dated 2016).
Counter-ions that a name gives are not always drawn. Like-named read-outs stand apart in the source and are kept apart here.

Assays:
human PDE4B1 = biological target: T1, human PDE4B1 (Homo sapiens, UniProt Q07343); test: cAMP HTRF assay to determine the activity of hPDE4B1; assay type: biochemical; conditions: read-out: PDE4B IC50
T1 construct: host or cells: Sf9 cells
Method: 1. Determination of the PDE4B IC50 Values with a cAMP HRTF® Assay to Determine the Activity of hPDE4B1
The inhibiting effect of the compounds on the enzyme activity of human PDE4B1 is measured by the quantification of 5′-AMP, which is formed from 3′,5′-adenosine monophosphate (cAMP). Human recombinant enzyme, expressed in Sf9 cells, and the HTRF (homogeneous time-resolved fluorescence) detection method are used in the assay.
The test compound or water (control) is mixed with the human recombinant PDE4B1 enzyme (4.8 U) in a buffer consisting of 44.4 mM tris-HCl, 5.28 mM MgCl2, 2.64 mM DTT and 0.044% Tween 20 (pH 7.8). After adding the cAMP enzyme substrate (final concentration 40 nM) the mixture is incubated for 30 minutes at room temperature. Then a fluorescence acceptor (Dye2 marked with cAMP), a fluorescence donor (anti-cAMP antibody marked with a europium cryptate) and the non-specific phosphodiesterase inhibitor IBMX (3-isobutyl-1-methylxanthine; final concentration 1 mM) are added. After 60 minutes the fluorescence transfer, which correlates with the amount of remaining cAMP, is measured with a microplate reader (Rubystar, BMG) at λex=337 nm, λem=620 nm and λεm=665 nm. The enzyme activity is calculated from the quotient formed from the measured signal at 665 nm and that at 620 nm. The result is expressed as the percentage inhibition of enzyme activity of the control (without PDE4 inhibitor) (literature: N. Saldou et al., Comparison of recombinant human PDE4 isoforms: interaction with substrate and inhibitors, Cell. Signal. Vol. 10, No. 6, 427-440, 1998). The enzyme is omitted for measurement of the basal control. The averaged results are set out in Table 5.

human recombinant PDE4D2 = human recombinant PDE4D2 (Homo sapiens, UniProt Q08499); test: cAMP HTRF assay to determine the activity of hPDE4D2; assay type: biochemical
Method: 2. Determination of the PDE4D-IC50 Values with a cAMP HRTF® Assay to Determine the Activity of hPDE4D2
The further procedure and evaluation are performed in exactly the same way as in the above description of the cAMP HTRF® assay for PDE4B.

[1] = human recombinant PDE4B1, cAMP 40 nM, averaged results (Table 5)
[2] = comparative experiments, re-synthesised prior-art compounds (Table 6)

T1 sequence (Q07343 whole entry): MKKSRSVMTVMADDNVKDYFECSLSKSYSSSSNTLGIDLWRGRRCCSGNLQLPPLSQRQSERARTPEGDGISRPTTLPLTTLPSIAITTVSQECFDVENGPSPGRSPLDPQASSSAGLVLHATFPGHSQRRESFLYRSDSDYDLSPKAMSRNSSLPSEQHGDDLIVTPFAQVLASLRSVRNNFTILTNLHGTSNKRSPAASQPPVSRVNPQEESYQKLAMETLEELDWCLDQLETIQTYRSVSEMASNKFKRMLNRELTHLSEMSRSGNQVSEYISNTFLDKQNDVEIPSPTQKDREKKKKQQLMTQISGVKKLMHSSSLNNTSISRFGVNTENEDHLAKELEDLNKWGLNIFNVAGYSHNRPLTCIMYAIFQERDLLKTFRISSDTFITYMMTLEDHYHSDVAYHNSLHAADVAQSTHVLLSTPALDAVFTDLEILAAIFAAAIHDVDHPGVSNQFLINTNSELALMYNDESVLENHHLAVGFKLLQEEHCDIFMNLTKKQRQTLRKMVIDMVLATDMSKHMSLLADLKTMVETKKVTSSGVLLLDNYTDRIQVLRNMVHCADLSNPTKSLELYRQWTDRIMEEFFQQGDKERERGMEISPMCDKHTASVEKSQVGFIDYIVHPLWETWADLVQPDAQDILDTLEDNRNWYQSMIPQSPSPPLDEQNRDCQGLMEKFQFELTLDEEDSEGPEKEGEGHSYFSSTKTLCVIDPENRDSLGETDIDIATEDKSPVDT
human recombinant PDE4D2, sequence (Q08499 303-809): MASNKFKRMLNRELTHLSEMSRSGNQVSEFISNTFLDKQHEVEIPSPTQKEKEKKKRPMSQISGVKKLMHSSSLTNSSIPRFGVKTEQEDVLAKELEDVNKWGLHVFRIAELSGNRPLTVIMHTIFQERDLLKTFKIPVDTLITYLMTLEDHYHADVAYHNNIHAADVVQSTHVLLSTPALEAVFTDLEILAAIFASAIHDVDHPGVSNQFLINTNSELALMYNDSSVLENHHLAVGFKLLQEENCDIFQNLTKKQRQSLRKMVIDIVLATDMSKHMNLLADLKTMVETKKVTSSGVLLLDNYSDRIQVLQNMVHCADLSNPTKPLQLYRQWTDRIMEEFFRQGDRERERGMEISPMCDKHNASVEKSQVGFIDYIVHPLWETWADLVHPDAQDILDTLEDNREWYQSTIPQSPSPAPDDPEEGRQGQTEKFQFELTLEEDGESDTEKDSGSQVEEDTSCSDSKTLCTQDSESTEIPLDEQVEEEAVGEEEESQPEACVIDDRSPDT

O=C(O)c1ccc(Nc2nc(-c3cccc(Cl)c3)nc3c2CCCC3)cc1 [Compound 19, 4-(2-(3-Chlorophenyl)-5,6,7,8-tetrahydroquinazoline-4-ylamino)benzoic acid]
IC50 (human PDE4B1; [1]): 2140 nM

O=C(O)Cc1ccc(Nc2nc(-c3ccc(F)c(F)c3)nc3c2CCC3)cc1 [Compound 2, 2-(4-(2-(3,4-Difluorophenyl)-6,7-dihydro-5H-cyclopenta[d]pyrimidin-4-ylamino)phenyl)acetic acid]
IC50 (human PDE4B1; [1]): 190 nM

O=C(O)Cc1ccc(Nc2nc(-c3ccc(Cl)cc3)nc3c2CCC3)cc1 [Compound 9, 2-(4-(2-(4-Chlorophenol)-6,7-dihydro-5H-cyclopenta[d]pyrimidin-4-ylamino)phenyl)acetic acid as 2,2,2-trifluoroacetic acid addition salt]
IC50 (human PDE4B1; [1]): 880 nM

O=C(O)Cc1ccc(Nc2nc(-c3ccc(Br)cc3)nc3c2CCC3)cc1 [Compound 1, 2-(4-(2-(4-Bromophenyl)-6,7-dihydro-5H-cyclopenta[d]pyrimidin-4-ylamino)phenyl)acetic acid]
IC50 (human PDE4B1; [1]): 660 nM

O=C(O)Cc1ccc(Nc2nc(-c3cccc(Br)c3)nc3c2CCC3)cc1 [Compound 18, 2-(4-(2-(3-Bromophenyl)-6,7-dihydro-5H-cyclopenta[d]pyrimidin-4-ylamino)phenyl)acetic acid]
IC50 (human PDE4B1; [1]): 220 nM

COc1ccc(-c2nc3c(c(Nc4ccc(C(=O)O)cc4)n2)CCC3)cc1Cl [Compound 14, 4-(2-(3-Chloro-4-methoxyphenyl)-6,7-dihydro-5H-cyclopenta[d]pyrimidin-4-ylamino)benzoic acid]
IC50 (human PDE4B1; [1]): 140 nM
melting point: > 260 °C

C=CCc1c(C)nc(-c2ccccc2)nc1Nc1ccc(C(=O)O)cc1 [Compound S2, reference compound]
IC50 (human recombinant PDE4D2): 1300 nM
IC50 (human PDE4B1; [2]): 1100 nM

C=CCc1c(C)nc(-c2ccc(OC)cc2)nc1Nc1ccc(CC(=O)O)cc1 [Compound S1, reference compound]
IC50 (human recombinant PDE4D2; comparative experiments, re-synthesised prior-art compounds (Table 6), read-out: PDE4D IC50): > 10000 nM
IC50 (human PDE4B1; [2]): 3600 nM

O=C(O)Cc1ccc(Nc2nc(-c3cccc(Cl)c3)nc3c2CCC3)cc1 [Compound 10, 2-(4-(2-(3-Chlorophenyl)-6,7-dihydro-5H-cyclopenta[d]pyrimidin-4-ylamino)phenyl)acetic acid]
IC50 (human PDE4B1; [1]): 300 nM

CCOc1ccc(-c2nc3c(c(Nc4ccc(CC(=O)O)cc4)n2)CCC3)cc1 [Compound 7, 2-(4-(2-(4-Ethoxyphenyl)-6,7-dihydro-5H-cyclopenta[d]pyrimidin-4-ylamino)phenyl)acetic acid]
IC50 (human PDE4B1; [1]): 600 nM

O=C(O)Cc1ccc(Nc2nc(-c3ccc(OC(F)F)cc3)nc3c2CCC3)cc1 [Compound 5, 2-(4-(2-(4-(Difluoromethoxy)phenyl)-6,7-dihydro-5H-cyclopenta[d]pyrimidin-4-ylamino)phenyl)acetic acid]
IC50 (human PDE4B1; [1]): 490 nM

O=C(O)Cc1ccc(Nc2nc(-c3cccc(F)c3)nc3c2CCC3)cc1 [Compound 17, 2-(4-(2-(3-Fluorophenyl)-6,7-dihydro-5H-cyclopenta[d]pyrimidin-4-ylamino)phenyl)acetic acid]
IC50 (human PDE4B1; [1]): 210 nM

O=C(O)Cc1ccc(Nc2nc(-c3ccc(OC(F)(F)F)cc3)nc3c2CCC3)cc1 [Compound 6, 2-(4-(2-(4-(Trifluoromethoxy)phenyl)-6,7-dihydro-5H-cyclopenta[a]pyrimidin-4-ylamino)phenyl)acetic acid]
IC50 (human PDE4B1; [1]): 3100 nM

COc1ccc(-c2nc3c(c(Nc4ccc(CC(=O)O)cc4)n2)CCC3)cc1 [Compound 8, 2-(4-(2-(4-Methoxyphenyl)-6,7-dihydro-5H-cyclopenta[d]pyrimidin-4-ylamino)phenyl)acetic acid as 2,2,2-trifluoroacetic acid addition salt]
IC50 (human PDE4B1; [1]): 380 nM

O=C(O)c1ccc(Nc2nc(-c3cccc(Cl)c3)nc3c2CCC3)cc1 [Compound 11, 4-(2-(3-Chlorophenyl)-6,7-dihydro-5H-cyclopenta[d]pyrimidin-4-ylamino)benzoic acid]
IC50 (human PDE4B1; [1]): 640 nM

O=C(O)Cc1ccc(Nc2nc(-c3ccc4occc4c3)nc3c2CCC3)cc1 [Compound 2-1, 2-(4-(2-(Benzofuran-5-yl)-6,7-dihydro-5H-cyclopenta[d]pyrimidin-4-ylamino)phenyl)acetic acid]
IC50 (human PDE4B1; [1]): 740 nM

COc1ccc(-c2nc3c(c(Nc4ccc(C(=O)O)cc4)n2)CCC3)cc1F [Compound 13, 4-(2-(3-Fluoro-4-Methoxyphenyl)-6,7-Dihydro-5H-Cyclopenta[d]pyrimidin-4-ylamino)benzoic acid]
IC50 (human PDE4B1; [1]): 210 nM
melting point: > 260 °C

COc1ccc(-c2nc3c(c(Nc4ccc(CC(=O)O)cc4)n2)CCC3)cc1Cl [Compound 4, 2-(4-(2-(3-Chloro-4-methoxyphenyl)-6,7-dihydro-5H-cyclopenta[d]pyrimidin-4-ylamino)phenyl)acetic acid]
IC50 (human PDE4B1; [1]): 70 nM

COc1ccc(-c2nc3c(c(Nc4ccc(CC(=O)O)cc4)n2)CCC3)cc1F [Compound 3, 2-(4-(2-(3-Fluoro-4-methoxyphenyl)-6,7-dihydro-5H-cyclopenta[d]pyrimidin-4-ylamino)phenyl)acetic acid]
IC50 (human PDE4B1; [1]): 120 nM

O=C(O)Cc1ccc(Nc2nc(-c3ccccc3)nc3c2CCC3)cc1 [Compound 16, 2-(4-(2-Phenyl-6,7-dihydro-5H-cyclopenta[d]pyrimidin-4-ylamino)phenyl)acetic acid]
IC50 (human PDE4B1; [1]): 690 nM

O=C(O)Cc1ccc(Nc2nc(-c3cccc(Cl)c3)nc3c2CCCC3)cc1 [Compound 12, 2-(4-(2-(3-Chlorophenyl)-5,6,7,8-tetrahydroquinazolin-4-ylamino)phenyl)acetic acid]
IC50 (human PDE4B1; [1]): 550 nM

O=C(O)c1ccc(Nc2nc(-c3ccc(F)c(F)c3)nc3c2CCC3)cc1 [Compound 15, 4-(2-(3,4-Difluorophenyl)-6,7-dihydro-5H-cyclopenta[d]pyrimidin-4-ylamino)benzoic acid]
IC50 (human PDE4B1; [1]): 390 nM
melting point: > 260 °C
